In doi:10.1101/2021.10.07.463234v2 (biorxiv, 2021):
Counter-ions that a name gives are not always drawn.

Each compound was assayed against SARS-CoV-2 Mac1 (Severe acute respiratory syndrome coronavirus 2, UniProt P0DTD1) (assay: biochemical). Conditions: 100 µM; inhibitor.
For `O=C1O[C@H]([C@@H](O)CO)C(O)=C1O` [Sodium ascorbate], the “%inhibition” value was 0%. `O=C(O)c1ccccc1` [Sodium benzoate] was tested, and the “%inhibition” value was 0%. `O=C(O)c1ccccc1O` [Sodium salicylate] was tested, and the “%inhibition” value was 0%. With `Nc1ccc(S(=O)(=O)Nc2ncccn2)cc1` [Sodium sulfadiazine] the “%inhibition” value was 0%. With `CNC(=O)c1cc(Oc2ccc(NC(=O)Nc3ccc(Cl)c(C(F)(F)F)c3)cc2)ccn1` [Sorafenib Tosylate] the “%inhibition” value was 10.76%. `CC1(C)[C@H](C(=O)O)N2C(=O)C[C@H]2S1(=O)=O` [Sulbactam] was tested, and the “%inhibition” value was 20.75%. In the case of `CC(=O)NS(=O)(=O)c1ccc(N)cc1` [Sulfacetamide Sodium], the “%inhibition” value is reported as 3.132%. With `CC(=O)NS(=O)(=O)c1ccc(N)cc1` [Sulfacetamide sodium salt hydrate] the “%inhibition” value was 8.356%. For `CC(=O)NS(=O)(=O)c1ccc(N)cc1` [Sulfacetamide], the “%inhibition” value was 27.01%. With `Nc1ccc(S(=O)(=O)Nc2ncccn2)cc1` [Sulfadiazine] the “%inhibition” value was 29.9%. For `Cc1cc(C)nc(NS(=O)(=O)c2ccc(N)cc2)n1` [Sulfamethazine Sodium Salt], the “%inhibition” value was 12.6%. For `Cc1cc(C)nc(NS(=O)(=O)c2ccc(N)cc2)n1` [Sulfamethazine], the “%inhibition” value was 0%. In the case of `Cc1cc(NS(=O)(=O)c2ccc(N)cc2)no1` [Sulfamethoxazole sodium], the “%inhibition” value is reported as 0%. With `Cc1cc(NS(=O)(=O)c2ccc(N)cc2)no1` [Sulfamethoxazole] the “%inhibition” value was 24.84%. `CCN(CC)CCNC(=O)c1c(C)[nH]c(/C=C2\C(=O)Nc3ccc(F)cc32)c1C` [Sunitinib] was tested, and the “%inhibition” value was 31.86%. In the case of `Nc1c2c(nc3ccccc13)CCCC2` [Tacrine HCl], the “%inhibition” value is reported as 0.07061%. For `Nc1c2c(nc3ccccc13)CCCC2` [Tacrine hydrochloride hydrate], the “%inhibition” value was 12.09%.

Same assay, conditions: read-out: %inhibition
Compound `Nc1ccc(C(=O)O)c(O)c1` [Sodium 4-Aminosalicylate] has an inhibition at 100 µM of 0%. Compound `Nc1ccc(C(=O)NCC(=O)O)cc1` [Sodium 4-aminohippurate Hydrate] has an inhibition at 100 µM of 0%. Work on `O=C(O)[C@H]1O[C@H](O)[C@H](O)[C@@H](O)[C@@H]1O` [Sodium Gluconate] yielded an inhibition at 100 µM of 0%. For `O=C(O)CCCc1ccccc1` [Sodium Phenylbutyrate], the inhibition at 100 µM was 6.6%. `O=S(=O)(O)Oc1ccc(C(c2ccc(OS(=O)(=O)O)cc2)c2ccccn2)cc1` [Sodium Picosulfate] gave an inhibition at 100 µM of 1.51%. `CCCC(=O)O` [Sodium butyrate] was tested, and the inhibition at 100 µM was 0%. `O=C(O)O` [Sodium carbonate] was tested, and the inhibition at 100 µM was 0.406%. `Cc1cc(S(=O)(=O)O)c2c(C)ccc(C(C)C)cc1-2` [Sodium gualenate] showed an inhibition at 100 µM of 12.6%. `O=C(O)CCC(=O)O` [Sodium succinate] was tested, and the inhibition at 100 µM was 0%. `CC(C)=CCOc1ccc(/C=C/C(=O)c2ccc(OCC=C(C)C)cc2OCC(=O)O)cc1` [Sofalcone] was tested, and the inhibition at 100 µM was 14.1%. With `CC(C)OC(=O)[C@H](C)N[P@](=O)(OC[C@H]1O[C@@H](n2ccc(=O)[nH]c2=O)[C@](C)(F)[C@@H]1O)Oc1ccccc1` [Sofosbuvir (PSI-7977, GS-7977)] the inhibition at 100 µM was 42.9%. Work on `Cc1c(C(=O)Nc2ccc(N3C[C@@H](C)O[C@@H](C)C3)nc2)cccc1-c1ccc(OC(F)(F)F)cc1` [Sonidegib (Erismodegib, NVP-LDE225)] yielded an inhibition at 100 µM of 0%. `CNC(=O)c1cc(Oc2ccc(NC(=O)Nc3ccc(Cl)c(C(F)(F)F)c3)cc2)ccn1` [Sorafenib] showed an inhibition at 100 µM of 15.7%. Work on `OC[C@@H](O)[C@@H](O)[C@H](O)[C@@H](O)CO` [Sorbitol] yielded an inhibition at 100 µM of 0%. `CCOc1ccc(Cc2cc([C@@H]3O[C@H](SC)[C@@H](O)[C@H](O)[C@H]3O)ccc2Cl)cc1` [Sotagliflozin (LX4211)] was tested, and the inhibition at 100 µM was 0%. `CC(C)NCC(O)c1ccc(NS(C)(=O)=O)cc1` (stereo not drawn) [Sotalol HCl] gave an inhibition at 100 µM of 0%. Work on `CN1CCN(c2nc(C3=C(c4c[nH]c5ccccc45)C(=O)NC3=O)c3ccccc3n2)CC1` [Sotrastaurin] yielded an inhibition at 100 µM of 34.7%. Work on `C[C@@H]1CN(c2c(F)c(N)c3c(=O)c(C(=O)O)cn(C4CC4)c3c2F)C[C@H](C)N1` [Sparfloxacin] yielded an inhibition at 100 µM of 25.5%. `CN[C@@H]1[C@H](O)[C@H](NC)[C@H]2O[C@@]3(O)C(=O)C[C@@H](C)O[C@H]3O[C@@H]2[C@H]1O` [Spectinomycin 2HCl] showed an inhibition at 100 µM of 11.7%. `CC(=O)S[C@@H]1CC2=CC(=O)CC[C@]2(C)[C@H]2CC[C@@]3(C)[C@@H](CC[C@@]34CCC(=O)O4)[C@H]12` [Spironolactone] was tested, and the inhibition at 100 µM was 6.62%. `Cc1cn([C@H]2C=C[C@@H](CO)O2)c(=O)[nH]c1=O` [Stavudine (d4T)] gave an inhibition at 100 µM of 0%. `CCCCCCCCCCCCCCCCCC(=O)O` [Stearic acid] was tested, and the inhibition at 100 µM was 6.72%. Work on `CC(C)(C)C(O)/C=C/c1ccc2c(c1)OCO2` (stereo not drawn) [Stiripentol] yielded an inhibition at 100 µM of 12.5%. `CN[C@@H]1[C@H](O[C@H]2[C@H](O[C@H]3[C@H](O)[C@@H](O)[C@H](N=C(N)N)[C@@H](O)[C@@H]3N=C(N)N)O[C@@H](C)[C@]2(O)C=O)O[C@@H](CO)[C@H](O)[C@H]1O` [Streptomycin sulfate] was tested, and the inhibition at 100 µM was 0%. `C[N+](C)(C)CCOC(=O)CCC(=O)OCC[N+](C)(C)C` [Succinylcholine Chloride Dihydrate] was tested, and the inhibition at 100 µM was 0%. Work on `O=C(O)CCC(=O)Nc1ccc(S(=O)(=O)Nc2nccs2)cc1` [Succinylsulfathiazole] yielded an inhibition at 100 µM of 0%. In the case of `CC1(C)[C@H](C(=O)O)N2C(=O)C[C@H]2S1(=O)=O` [Sulbactam sodium], the inhibition at 100 µM is reported as 16.4%. For `Nc1ccc(S(=O)(=O)NC(=O)c2ccccc2)cc1` [Sulfabenzamide], the inhibition at 100 µM was 0%. `COc1ncnc(NS(=O)(=O)c2ccc(N)cc2)c1OC` [Sulfadoxine] showed an inhibition at 100 µM of 0%. Work on `N=C(N)NS(=O)(=O)c1ccc(N)cc1` [Sulfaguanidine] yielded an inhibition at 100 µM of 8.72%. Compound `COc1nccnc1NS(=O)(=O)c1ccc(N)cc1` [Sulfalene(SMPZ)] has an inhibition at 100 µM of 5.42%. Compound `Nc1ccc(S(=O)(=O)Nc2cncc(Cl)n2)cc1` [Sulfalozine sodium] has an inhibition at 100 µM of 0%. Compound `Cc1ccnc(NS(=O)(=O)c2ccc(N)cc2)n1` [Sulfamerazine] has an inhibition at 100 µM of 0%. For `COc1cnc(NS(=O)(=O)c2ccc(N)cc2)nc1` [Sulfameter], the inhibition at 100 µM was 0%. For `Cc1nnc(NS(=O)(=O)c2ccc(N)cc2)s1` [Sulfamethizole], the inhibition at 100 µM was 15.9%. For `COc1ccc(NS(=O)(=O)c2ccc(N)cc2)nn1` [Sulfamethoxypyridazine], the inhibition at 100 µM was 4.31%. Work on `Nc1ccc(S(N)(=O)=O)cc1` [Sulfanilamide] yielded an inhibition at 100 µM of 19.9%. `Nc1ccc(S(=O)(=O)Nc2ccnn2-c2ccccc2)cc1` [Sulfaphenazole] was tested, and the inhibition at 100 µM was 0%. Compound `Nc1ccc(S(=O)(=O)Nc2ccccn2)cc1` [Sulfapyridine] has an inhibition at 100 µM of 10.7%. With `O=C(O)c1cc(/N=N/c2ccc(S(=O)(=O)Nc3ccccn3)cc2)ccc1O` [Sulfasalazine] the inhibition at 100 µM was 0%. `Nc1ccc(S(=O)(=O)Nc2nccs2)cc1` [Sulfathiazole] was tested, and the inhibition at 100 µM was 5.37%. For `Cc1noc(NS(=O)(=O)c2ccc(N)cc2)c1C` [Sulfisoxazole], the inhibition at 100 µM was 20.4%. For `COc1cc(S(=O)(=O)O)ccc1O` [Sulfogaiacol], the inhibition at 100 µM was 0%. In the case of `CC1=C(CC(=O)O)c2cc(F)ccc2/C1=C\c1ccc([S+](C)[O-])cc1` (stereo not drawn) [Sulindac], the inhibition at 100 µM is reported as 4.16%. With `COc1cc(O)c(C(=O)c2ccccc2)cc1S(=O)(=O)O` [Sulisobenzone] the inhibition at 100 µM was 4.13%. For `COc1cc(NS(=O)(=O)c2ccc(N)cc2)nc(OC)n1` [Sulphadimethoxine], the inhibition at 100 µM was 0%. For `CCN1CCCC1CNC(=O)c1cc(S(N)(=O)=O)ccc1OC` (stereo not drawn) [Sulpiride], the inhibition at 100 µM was 0%. `CC1(C)S[C@@H]2[C@H](NC(=O)[C@H](N)c3ccccc3)C(=O)N2[C@H]1C(=O)OCOC(=O)[C@@H]1N2C(=O)C[C@H]2S(=O)(=O)C1(C)C` [Sultamicillin] gave an inhibition at 100 µM of 8.63%. Compound `CCN(CC)CCNC(=O)c1c(C)[nH]c(/C=C2\C(=O)Nc3ccc(F)cc32)c1C` [Sunitinib Malate] has an inhibition at 100 µM of 16.2%. `CC(C(=O)O)c1ccc(C(=O)c2cccs2)cc1` (stereo not drawn) [Suprofen] gave an inhibition at 100 µM of 18%. In the case of `CNC(=O)c1ccc2cc([C@@]3(O)CCn4cncc43)ccc2c1` [TAK-700 (Orteronel)], the inhibition at 100 µM is reported as 0%. Work on `C=CC[C@@H]1/C=C(\C)C[C@H](C)C[C@H](OC)[C@H]2O[C@@](O)(C(=O)C(=O)N3CCCC[C@H]3C(=O)O[C@H](/C(C)=C/[C@@H]3CC[C@@H](O)[C@H](OC)C3)[C@H](C)[C@@H](O)CC1=O)[C@H](C)C[C@@H]2OC` [Tacrolimus (FK506)] yielded an inhibition at 100 µM of 29.6%. For `CN1CC(=O)N2[C@H](c3ccc4c(c3)OCO4)c3[nH]c4ccccc4c3C[C@@H]2C1=O` [Tadalafil], the inhibition at 100 µM was 20.7%. `CC(C)OC(=O)CCC/C=C\C[C@@H]1[C@@H](/C=C/C(F)(F)COc2ccccc2)[C@H](O)C[C@@H]1O` [Tafluprost] was tested, and the inhibition at 100 µM was 4.8%. `CC1(C)CCC(C)(C)c2cc(NC(=O)c3ccc(C(=O)O)cc3)ccc21` [Tamibarotene] was tested, and the inhibition at 100 µM was 1.99%. `CCOc1ccccc1OCCN[C@H](C)Cc1ccc(OC)c(S(N)(=O)=O)c1` [Tamsulosin hydrochloride] showed an inhibition at 100 µM of 0%. For `C=CCNC1=C2C[C@@H](C)C[C@H](OC)[C@H](O)[C@@H](C)/C=C(\C)[C@H](OC(N)=O)[C@@H](OC)/C=C\C=C(/C)C(=O)NC(=CC1=O)C2=O` [Tanespimycin (17-AAG)], the inhibition at 100 µM was 3.81%. For `CCC(=O)NC[C@@H]1C[C@H]1c1cccc2c1CCO2` [Tasimelteon], the inhibition at 100 µM was 0%. In the case of `O=C(NS(=O)(=O)c1ccc(Br)s1)c1ccc(Cl)cc1Cl` [Tasisulam], the inhibition at 100 µM is reported as 0%. Compound `NCCS(=O)(=O)O` [Taurine] has an inhibition at 100 µM of 0%. With `OB1OCc2cc(F)ccc21` [Tavaborole (AN-2690)] the inhibition at 100 µM was 0.84%. `CCOC(=O)c1ccc(C#Cc2ccc3c(c2)C(C)(C)CCS3)nc1` [Tazarotene] showed an inhibition at 100 µM of 0%. `C[C@]1(Cn2ccnn2)[C@H](C(=O)O)N2C(=O)C[C@H]2S1(=O)=O` [Tazobactam] gave an inhibition at 100 µM of 6.81%. In the case of `C[C@@H](O)[C@H]1C(=O)N2C(C(=O)OCOC(=O)C(C)(C)C)=C(SC3CN(C4=NCCS4)C3)[C@H](C)[C@H]12` [Tebipenem Pivoxil], the inhibition at 100 µM is reported as 1.32%.
